# Test results as given in article PMC3470935 (Journal of medicinal chemistry, 2012).
# Positions count from the first letter of the chain named.
# Legend:
# [1] = biological target: T1, AKR1C3 (Homo sapiens, UniProt P42330); assay: Spectrophotometric inhibition assay, 1-acenaphthenol oxidation with NAD+; assay type: biochemical; conditions: pH 9.0, screening at 400 μM
# T1 sequence (P42330 1-323): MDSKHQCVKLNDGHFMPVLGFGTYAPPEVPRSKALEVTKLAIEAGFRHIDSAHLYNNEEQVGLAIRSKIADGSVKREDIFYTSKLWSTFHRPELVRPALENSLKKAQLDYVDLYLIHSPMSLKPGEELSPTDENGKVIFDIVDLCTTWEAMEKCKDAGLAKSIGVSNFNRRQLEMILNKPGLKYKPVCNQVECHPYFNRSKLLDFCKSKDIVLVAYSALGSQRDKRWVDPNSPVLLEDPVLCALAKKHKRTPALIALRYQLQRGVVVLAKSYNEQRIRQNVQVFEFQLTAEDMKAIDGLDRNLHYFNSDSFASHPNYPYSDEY
# [2] = system: AKR1C1-3; assay: Isoform profile across the AKR1C enzymes; assay type: biochemical, human; conditions: 1-acenaphthenol oxidation, NAD+, pH 9.0
# [3] = biological target: T2, AKR1C2 (Homo sapiens, UniProt P52895); assay: Spectrophotometric inhibition assay, 1-acenaphthenol oxidation with NAD+; assay type: biochemical; conditions: pH 9.0, screening at 400 μM
# T2 sequence (P52895 1-323): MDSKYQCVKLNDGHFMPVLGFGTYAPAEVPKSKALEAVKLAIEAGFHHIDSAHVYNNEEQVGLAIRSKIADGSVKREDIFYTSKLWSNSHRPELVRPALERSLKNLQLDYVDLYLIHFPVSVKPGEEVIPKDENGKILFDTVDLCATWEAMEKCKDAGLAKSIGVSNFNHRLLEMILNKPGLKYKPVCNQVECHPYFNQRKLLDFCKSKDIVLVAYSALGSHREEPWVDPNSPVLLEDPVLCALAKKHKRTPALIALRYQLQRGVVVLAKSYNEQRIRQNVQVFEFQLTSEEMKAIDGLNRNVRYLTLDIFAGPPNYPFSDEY
# [4] = biological target: T3, AKR1C1 (Homo sapiens, UniProt Q04828); assay: as above; assay type: biochemical; conditions: pH 9.0, screening at 400 μM
# T3 sequence (Q04828 1-323): T2 sequence (P52895 1-323) with V38T, H47R, V54L, S87C, M151V, H170R, L172Q
inhibition of AKR1C3 (in words) [1],inhibition profile / isoform selectivity on AKR1C enzymes (in words) [2],inhibition of AKR1C2 (in words) [3],inhibition of AKR1C1 (in words) [4],Compound
moderate,–,–,–,"O=C(O)c1cc(NC(=O)c2ccccc2F)ccc1O [Compound 1, 5-(2-fluorobenzamido)salicylic acid]"
–,selective AKR1C3 inhibitor,very low inhibition,no observable inhibition,"Cc1cc(C(=O)Nc2ccc(O)c(C(=O)O)c2)oc1C [Compound 3, 5-(4,5-dimethylfuran-2-carboxamido)-salicylic acid]"
–,selective AKR1C3 inhibitor,–,–,"NC(=O)c1ccccc1/N=C/c1cccc(O)c1 [Compound 5, 2-(3-hydroxybenzylideneamino)benzamide]"
–,low inhibitory effect,–,–,NC(=O)c1ccccc1NC(=O)c1ccncc1 [Compound 7]
–,low inhibitory effect,–,–,Cc1cccc(C(=O)Nc2ccccc2C(N)=O)c1 [Compound 8]
weak inhibitor,–,–,weak inhibitor,Cc1ccc(NC(=O)c2cccnc2)c(C(=O)O)c1 [Compound 10]
moderate,–,–,–,O=C(O)c1ccc(CNCc2ccccn2)cc1 [Compound 18]
–,–,moderate inhibitor,–,"CC(=O)Nc1ccc(C(C#N)c2ccccc2)cc1 (stereo not shown) [Compound 24, N-(4-(cyano(phenyl)methyl)phenyl)acetamide]"
–,selective AKR1C3 inhibitors,–,–,"O=C(NCc1cc(=O)[nH]cn1)c1cc2ccccn2n1 [Compound 27, N-((6-oxo-1,6-dihydropyrimidin-4-yl)methyl)pyrazolo[1,5-a]pyridine-2-carboxamide]"

Compound,inhibition of AKR1C3 (in words) [1],inhibition profile / isoform selectivity on AKR1C enzymes (in words) [2],inhibition of AKR1C2 (in words) [3],inhibition of AKR1C1 (in words) [4]
"Cc1oc(C(N)=O)cc1COc1ccccc1C(N)=O [Compound 4, 4-((2-carbamoylphenoxy)methyl)-5-methylfuran-2-carboxamide]",moderate inhibitor,partially selective towards AKR1C1,moderate inhibitor,–
"O=C(CSc1ncnc2[nH]cnc12)Nc1ccccn1 [Compound 25, 2-((9H-purin-6-yl)thio)-N-(pyridin-2-yl)acetamide]",–,selective AKR1C1 inhibitor,–,–
